Consider 4 compounds from PMC5564600 (Oncotarget, 2017).

Each structure is given as a SMILES string.

Holding throughout (test): biochemical
Holding throughout (assay type): binding

The target of assay [1] is T1, panel of 442 kinases (Homo sapiens, UniProt P41743).
T1 construct: purchased Ambit Biosciences (scanMAXX KINOMEscan)
T1 sequence (P41743 1-596): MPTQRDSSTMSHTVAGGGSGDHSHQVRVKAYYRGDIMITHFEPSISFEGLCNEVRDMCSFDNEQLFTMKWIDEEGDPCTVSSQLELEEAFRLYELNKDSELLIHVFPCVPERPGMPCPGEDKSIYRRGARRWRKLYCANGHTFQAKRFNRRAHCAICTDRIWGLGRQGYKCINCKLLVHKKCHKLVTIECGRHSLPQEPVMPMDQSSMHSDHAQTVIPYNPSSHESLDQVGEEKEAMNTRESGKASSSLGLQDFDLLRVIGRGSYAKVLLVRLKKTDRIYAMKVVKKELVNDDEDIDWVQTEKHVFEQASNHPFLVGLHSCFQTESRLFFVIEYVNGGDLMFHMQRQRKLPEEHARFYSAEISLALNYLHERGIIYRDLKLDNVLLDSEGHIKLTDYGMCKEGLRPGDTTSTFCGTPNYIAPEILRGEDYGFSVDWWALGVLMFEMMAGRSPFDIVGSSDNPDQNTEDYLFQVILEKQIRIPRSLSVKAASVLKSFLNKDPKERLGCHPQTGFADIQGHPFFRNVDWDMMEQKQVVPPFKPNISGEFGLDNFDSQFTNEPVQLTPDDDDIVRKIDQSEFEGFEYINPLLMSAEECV
To be noted: kinase PRKCI; for remaining activity at 1 µM: read-out: PRKCI (% of control at 1 µM).

In assay [2] the target is T2, panel of 442 kinases (Homo sapiens, UniProt P27448).
T2 construct: purchased Ambit Biosciences (scanMAXX KINOMEscan)
The following applies: kinase MARK3; for remaining activity at 1 µM: read-out: % of control at 1 µM.

Assay [3] has as its target T3, panel of 442 kinases (Homo sapiens, UniProt Q13554).
T3 construct: purchased Ambit Biosciences (scanMAXX KINOMEscan)
The following applies: CAMK2B; for remaining activity at 1 µM: read-out: % of control at 1 µM.

Assay [4] addresses T4, panel of 442 kinases (Homo sapiens, UniProt O14730).
T4 construct: purchased Ambit Biosciences (scanMAXX KINOMEscan)
T4 sequence (O14730 1-519): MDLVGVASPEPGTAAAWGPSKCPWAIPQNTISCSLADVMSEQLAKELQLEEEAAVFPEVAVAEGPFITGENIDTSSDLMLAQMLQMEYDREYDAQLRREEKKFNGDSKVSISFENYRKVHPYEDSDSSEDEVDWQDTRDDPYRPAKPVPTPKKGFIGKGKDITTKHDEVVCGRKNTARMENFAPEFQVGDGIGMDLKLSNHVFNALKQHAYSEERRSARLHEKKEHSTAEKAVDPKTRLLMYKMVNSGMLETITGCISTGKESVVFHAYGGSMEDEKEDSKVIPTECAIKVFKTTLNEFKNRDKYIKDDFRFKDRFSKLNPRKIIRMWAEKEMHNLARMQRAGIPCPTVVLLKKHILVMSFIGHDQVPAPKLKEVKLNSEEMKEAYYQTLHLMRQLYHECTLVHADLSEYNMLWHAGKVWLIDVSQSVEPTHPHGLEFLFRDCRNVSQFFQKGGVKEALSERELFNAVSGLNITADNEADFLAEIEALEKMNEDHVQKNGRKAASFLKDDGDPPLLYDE
To be noted: kinase RIOK3; for remaining activity at 1 µM: read-out: RIOK3 (% of control at 1 µM).

In assay [5] the target is T5, panel of 442 kinases (Homo sapiens, UniProt P53350).
T5 construct: purchased Ambit Biosciences (scanMAXX KINOMEscan)
To be noted: kinase PLK1; for remaining activity at 1 µM: read-out: PLK1 (% of control at 1 µM).

Assay [6] concerns the target T6, panel of 442 kinases (Homo sapiens, UniProt Q9Y6M4).
T6 construct: purchased Ambit Biosciences (scanMAXX KINOMEscan)
To be noted: CSNK1G3; for remaining activity at 1 µM: read-out: % of control at 1 µM.

Assay [7] concerns the target T7, panel of 442 kinases (Homo sapiens, UniProt Q8NFD2).
T7 construct: purchased Ambit Biosciences (scanMAXX KINOMEscan)
T7 sequence (Q8NFD2 1-765): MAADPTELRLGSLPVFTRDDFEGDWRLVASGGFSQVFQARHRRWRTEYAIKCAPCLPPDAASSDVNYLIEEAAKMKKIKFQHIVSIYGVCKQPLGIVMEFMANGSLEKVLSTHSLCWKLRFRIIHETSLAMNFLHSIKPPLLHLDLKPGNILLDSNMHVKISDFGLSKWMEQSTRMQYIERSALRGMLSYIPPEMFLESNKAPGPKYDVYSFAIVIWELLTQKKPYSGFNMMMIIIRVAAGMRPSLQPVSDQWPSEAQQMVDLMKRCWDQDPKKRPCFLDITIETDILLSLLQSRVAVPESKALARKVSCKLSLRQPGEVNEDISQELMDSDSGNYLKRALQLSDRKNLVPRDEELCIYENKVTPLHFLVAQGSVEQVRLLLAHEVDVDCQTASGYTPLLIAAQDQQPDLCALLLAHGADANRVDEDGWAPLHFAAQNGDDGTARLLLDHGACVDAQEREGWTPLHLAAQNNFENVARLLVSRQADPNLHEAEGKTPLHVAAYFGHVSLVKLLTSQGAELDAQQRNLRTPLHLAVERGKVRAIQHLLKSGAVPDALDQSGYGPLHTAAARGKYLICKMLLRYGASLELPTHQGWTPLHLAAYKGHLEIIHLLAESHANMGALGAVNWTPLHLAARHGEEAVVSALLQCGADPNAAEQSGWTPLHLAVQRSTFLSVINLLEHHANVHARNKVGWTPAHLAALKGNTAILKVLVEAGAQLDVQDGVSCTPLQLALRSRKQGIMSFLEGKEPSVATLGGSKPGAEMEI
To be noted: ANKK1; for remaining activity at 1 µM: read-out: % of control at 1 µM.

[8] abbreviates: 10 µM, read-out: % of control at 10 µM.

T2 sequence (P27448 whole entry): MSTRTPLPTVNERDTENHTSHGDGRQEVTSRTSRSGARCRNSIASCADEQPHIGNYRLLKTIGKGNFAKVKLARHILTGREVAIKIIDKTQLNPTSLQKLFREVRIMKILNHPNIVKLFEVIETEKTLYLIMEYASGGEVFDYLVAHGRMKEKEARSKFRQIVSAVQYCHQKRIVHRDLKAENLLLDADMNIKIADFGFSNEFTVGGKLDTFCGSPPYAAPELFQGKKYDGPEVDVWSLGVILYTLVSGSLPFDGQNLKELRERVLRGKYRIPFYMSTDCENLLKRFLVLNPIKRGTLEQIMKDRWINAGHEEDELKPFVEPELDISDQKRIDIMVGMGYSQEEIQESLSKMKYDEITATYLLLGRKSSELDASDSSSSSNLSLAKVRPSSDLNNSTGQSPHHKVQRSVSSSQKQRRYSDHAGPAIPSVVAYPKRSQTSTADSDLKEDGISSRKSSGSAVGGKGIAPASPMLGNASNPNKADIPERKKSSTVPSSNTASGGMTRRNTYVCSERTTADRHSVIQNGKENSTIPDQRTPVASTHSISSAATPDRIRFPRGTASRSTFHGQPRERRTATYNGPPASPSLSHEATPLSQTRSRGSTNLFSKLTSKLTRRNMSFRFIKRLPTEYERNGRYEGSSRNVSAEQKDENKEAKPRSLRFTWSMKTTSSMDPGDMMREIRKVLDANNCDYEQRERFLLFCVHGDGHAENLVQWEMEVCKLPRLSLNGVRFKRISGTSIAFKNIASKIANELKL
T3 sequence (Q13554 whole entry): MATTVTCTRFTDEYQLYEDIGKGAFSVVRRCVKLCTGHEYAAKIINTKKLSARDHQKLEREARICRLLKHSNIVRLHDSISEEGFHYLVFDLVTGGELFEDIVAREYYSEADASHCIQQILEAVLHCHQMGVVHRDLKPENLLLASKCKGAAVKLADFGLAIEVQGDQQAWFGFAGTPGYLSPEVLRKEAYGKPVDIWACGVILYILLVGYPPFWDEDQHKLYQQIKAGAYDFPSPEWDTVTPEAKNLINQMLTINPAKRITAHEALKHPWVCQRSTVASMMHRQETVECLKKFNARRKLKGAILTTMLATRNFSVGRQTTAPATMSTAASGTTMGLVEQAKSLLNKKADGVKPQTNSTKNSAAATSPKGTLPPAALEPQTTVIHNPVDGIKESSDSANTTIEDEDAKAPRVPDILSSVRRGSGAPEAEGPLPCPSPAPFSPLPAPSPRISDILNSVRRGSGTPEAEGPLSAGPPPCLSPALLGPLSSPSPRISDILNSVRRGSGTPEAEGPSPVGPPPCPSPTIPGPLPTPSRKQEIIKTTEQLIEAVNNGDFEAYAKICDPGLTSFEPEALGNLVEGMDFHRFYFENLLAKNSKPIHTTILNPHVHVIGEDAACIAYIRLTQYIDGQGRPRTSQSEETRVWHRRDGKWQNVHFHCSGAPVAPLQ
T5 sequence (P53350 whole entry): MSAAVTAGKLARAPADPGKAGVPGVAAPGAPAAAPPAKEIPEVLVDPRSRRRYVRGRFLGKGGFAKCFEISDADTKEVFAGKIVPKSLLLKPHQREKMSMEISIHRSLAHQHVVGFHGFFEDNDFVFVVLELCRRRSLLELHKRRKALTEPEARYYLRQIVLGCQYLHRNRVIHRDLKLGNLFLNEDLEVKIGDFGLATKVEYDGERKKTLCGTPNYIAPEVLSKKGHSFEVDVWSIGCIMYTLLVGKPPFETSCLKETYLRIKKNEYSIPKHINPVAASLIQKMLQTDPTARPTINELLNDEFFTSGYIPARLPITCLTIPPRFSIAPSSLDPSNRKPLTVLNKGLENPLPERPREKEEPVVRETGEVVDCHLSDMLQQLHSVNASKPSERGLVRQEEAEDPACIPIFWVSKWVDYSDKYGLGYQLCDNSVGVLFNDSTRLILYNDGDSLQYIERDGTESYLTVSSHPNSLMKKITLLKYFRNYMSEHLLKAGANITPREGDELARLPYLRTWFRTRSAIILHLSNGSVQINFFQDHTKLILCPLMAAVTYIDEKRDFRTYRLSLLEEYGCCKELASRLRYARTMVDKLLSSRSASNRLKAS
T6 sequence (Q9Y6M4 whole entry): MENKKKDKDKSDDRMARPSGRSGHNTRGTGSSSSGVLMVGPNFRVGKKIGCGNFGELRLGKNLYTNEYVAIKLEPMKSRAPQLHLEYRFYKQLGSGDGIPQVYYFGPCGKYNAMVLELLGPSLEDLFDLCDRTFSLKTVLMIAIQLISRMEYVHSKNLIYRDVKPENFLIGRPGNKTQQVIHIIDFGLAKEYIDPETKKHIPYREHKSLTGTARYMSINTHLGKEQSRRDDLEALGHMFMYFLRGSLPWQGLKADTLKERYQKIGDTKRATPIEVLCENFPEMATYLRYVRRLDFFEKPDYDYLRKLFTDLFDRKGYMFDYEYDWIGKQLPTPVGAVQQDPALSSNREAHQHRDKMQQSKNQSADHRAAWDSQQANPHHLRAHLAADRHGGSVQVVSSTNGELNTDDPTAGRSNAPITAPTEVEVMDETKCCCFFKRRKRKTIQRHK

Turning to `COc1ncc(-c2ccc3nccc(-c4ccnnc4)c3c2)cc1NS(=O)(=O)c1ccc(F)cc1F` [Omipalisib], the remaining activity at 1 µM on panel of 442 kinases [1] was determined as 100%; at panel of 442 kinases [2], 100%; on panel of 442 kinases [3], 100%; on panel of 442 kinases [4], 95%; at panel of 442 kinases [5] it was 97%; on panel of 442 kinases [6] it was 100%. Also, the remaining activity at 1 µM at panel of 442 kinases [7] was found to be 100%.

As for `Cn1c(=O)n(-c2ccc(C(C)(C)C#N)cc2)c2c3cc(-c4cnc5ccccc5c4)ccc3ncc21` [Dactolisib, 2-methyl-2-[4-(3-methyl-2-oxo-8-quinolin-3-yl-2,3-dihydroimidazo[4,5-c]quinolin-1-yl)-phenyl] propionitrile], the remaining activity at 1 µM worked out at 86% at panel of 442 kinases [1]; 100% at panel of 442 kinases [2]; 87% at panel of 442 kinases [3]; 70% on panel of 442 kinases [4]; 93% at panel of 442 kinases [5]; 72% on panel of 442 kinases [6]. For the same compound, the remaining activity at 1 µM on panel of 442 kinases [7] stood at 100%.

For `Nc1cc(C(F)(F)F)c(-c2cc(N3CCOCC3)nc(N3CCOCC3)n2)cn1` [Buparlisib], the remaining activity at 1 µM at panel of 442 kinases [1] stood at 90%; on panel of 442 kinases [2], 97%; on panel of 442 kinases [3], 80%; at panel of 442 kinases [4], 95%; at panel of 442 kinases [5] it was 65%; at panel of 442 kinases [6] it was 100%. For the same compound, on panel of 442 kinases [7], the remaining activity at 1 µM was 91%. Also, the remaining activity at 10 µM was determined as 100% on panel of 442 kinases [1] (10 µM, read-out: PRKCI (% of control at 10 µM)); 100% at panel of 442 kinases [2] (setting [8]); 79% at panel of 442 kinases [3] (setting [8]); 95% on panel of 442 kinases [4] (10 µM, read-out: RIOK3 (% of control at 10 µM)); 84% at panel of 442 kinases [5] (10 µM, read-out: PLK1 (% of control at 10 µM)); 100% at panel of 442 kinases [6] (setting [8]). For the same compound, on panel of 442 kinases [7] (setting [8]), the remaining activity at 10 µM worked out at 94%.

As to `FC(F)c1nc2ccccc2n1-c1nc(N2CCOCC2)nc(N2CCOCC2)n1` [ZSTK474, 2-(difluoromethyl)-1-[4,6-di(4-morpholinyl)-1,3,5-triazin-2-yl]-1H-benzimidazole], the remaining activity at 1 µM at panel of 442 kinases [1] was found to be 100%; on panel of 442 kinases [2], 100%; at panel of 442 kinases [3], 100%; at panel of 442 kinases [4] it was 71%; on panel of 442 kinases [5], 62%; at panel of 442 kinases [6], 100%. In addition, the remaining activity at 1 µM at panel of 442 kinases [7] came to 100%.
